Usually pKd stands for the Kd on a negative log10 scale, so that one unit is a factor of ten.

Assay [1] has as its system DU145 cells. Nature of the assay: Co-treatment MTT assay, DU145. Particulars: constant ratio. For orientation: Tetrazolium dyes change colour on reduction, which living cells bring about.
The target in assay [2] is T1, DNA binding domain (DBD) of FOXC2 (Homo sapiens, UniProt Q99958).
T1 construct: His6 (N, cleaved yes); MBP (N, cleaved yes); made in house; host or cells: E. coli BL21(DE3)-RIPL
T1 sequence (Q99958 60-163): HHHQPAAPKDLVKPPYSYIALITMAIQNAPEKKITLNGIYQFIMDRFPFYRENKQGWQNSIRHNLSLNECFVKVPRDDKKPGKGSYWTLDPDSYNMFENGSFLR
In words: ELISA-like binding assay, immobilized DNA binding domain of FOXC2. Particulars: biotinylated compound. Here is the method: (§1) The binding affinity of MC-1-F2 to full-length FOXC2 was determined using an ELISA-like binding assay. In this assay, varying concentrations of biotinylated MC-1-F2 or biotinylated MC-C (control; FIG. 12) were incubated in the wells with immobilized recombinant full-length FOXC2 or the DNA binding domain (DBD) of FOXC2 (FIG. 2A). After washing off unbound ligand, the wells were incubated with streptavidin-conjugated Qdot655, followed by fluorescence measurement of the wells using a plate reader. […] This is important for the specificity of MC-1-F2 to FOXC2 as several forkhead transcription factors share a very similar DNA-binding domain.
(§2) Clear bottom, black wall, 96 well plate (Corning) was coated with 1 μg/mL of full length FOXC2 or DNA binding domain (DBD) of FOXC2 protein in sensitizing buffer (0.621 g NaHCO3, 0.275 g Na2CO3 in 100 mL of water pH=9.5) overnight at 4° C. Wells were washed 3 times with 200 μL of wash buffer (lx PBS with 0.05% Tween-20). Wells were blocked with blocking buffer (1% BSA in 1×PBS with 0.05% Tween-20) for 1 hour at room temperature. 50 μL of serial dilutions of biotinylated compound in blocking buffer were added to each well and incubated for 1 hour at room temperature. Followed was the addition of […] of 20 nM of strepavidin-Qdot655 in blocking buffer for 1 hour at room temperature. […] Fluorescence was measured using a plate reader (Ex. 495, Em. 655).
Background: ELISA stands for enzyme-linked immunosorbent assay.

The target of assay [3] is T2, full-length FOXC2 (Homo sapiens, UniProt Q99958).
T2 construct: human FOXC2 protein (amino acid residues 1-501) with a C-terminal 6 histidine tag; made in house; host or cells: E. coli BL21(DE3)
T2 sequence (Q99958 1-501): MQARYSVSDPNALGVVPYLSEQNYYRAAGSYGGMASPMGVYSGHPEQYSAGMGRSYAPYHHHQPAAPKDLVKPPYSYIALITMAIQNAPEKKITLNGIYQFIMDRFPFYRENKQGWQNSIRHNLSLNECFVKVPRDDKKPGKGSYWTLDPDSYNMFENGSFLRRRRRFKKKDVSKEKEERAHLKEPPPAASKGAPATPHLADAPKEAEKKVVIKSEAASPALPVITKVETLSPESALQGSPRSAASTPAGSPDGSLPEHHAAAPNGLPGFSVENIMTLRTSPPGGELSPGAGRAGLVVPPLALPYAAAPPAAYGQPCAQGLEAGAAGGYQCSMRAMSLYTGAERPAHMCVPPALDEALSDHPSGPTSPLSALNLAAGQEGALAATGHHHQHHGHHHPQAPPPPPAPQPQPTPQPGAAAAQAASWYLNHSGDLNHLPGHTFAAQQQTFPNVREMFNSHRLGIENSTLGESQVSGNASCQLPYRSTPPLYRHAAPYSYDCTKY
In words: ELISA-like binding assay, immobilized full-length FOXC2. Particulars: biotinylated compound, immobilized recombinant full-length FOXC2, Qdot655 fluorescence. Here is the method: as §1, §2

Assay [4] has as its system DU145 cells. Nature of the assay: Western blot of EMT, CSC markers and AR in DU145. Type of assay: cell-based. The following applies: DU145, 20 μM, 48 hours. An excerpt:
Due to our interest in CRPC the cell lines DU145 and PC3 were chosen due to their chemoresistance to high concentrations of enzalutamide, androgen independence, and relatively high expression of FOXC2 (FIGS. 30A&B). First, the effect of MC-1-F2 on the inhibition of EMT markers was examined (FIGS. 26A-G). […] The variability in E-cadherin expression can be due to a different mode of action the ligand MC-1-F2 is having on prostate cancer cells, possibly a time dependent effect of the ligand.
After confirmation of the ligand's ability to block EMT, the ligand's ability to decrease cancer stem cell (CSC) characteristics was determined. CRPC is plagued by a higher ratio of CSC to normal prostate cells, leading to the acquired characteristics of higher proliferative and self-renewal capabilities (Yun et al., 2016). CSC markers, Nanog, C-myc and KLF4, were examined.
50 μg of total protein per sample was incubated with 4× loading buffer at 100° C. for 5 min. Protein samples were then loaded into a polyacrylamide gel and subjected to SDS-PAGE. Resolved proteins were then transferred by a wet transfer method to a PVDF membrane at 100 V for 1 hour using a BioRad Mini Trans-Blot Electrophoresis Transfer Cell. Upon the completion of wet transfer, the membrane was then blocked with 5% (w/v) fat-free milk in 1× Tris-buffered saline/0.1% (v/v) Tween-20 (TBS-T) for at least 1 hour. Then incubated with the respective primary antibodies diluted in 5% BSA in 1×TBST at 4° C. overnight. The following day exposed to 1:1000 dilution of anti-mouse […] secondary antibodies in 5% (w/v) fat-free milk in 1×TBS-T for 1 hour at room temperature. The probed proteins were then detected for chemiluminescent signal using SuperSignal Chemiluminescent Substrate (PIERCE). Pierce antibodies: B-actin, and all other antibodies used are from cell signaling.
(Immunoblotting shows a protein as a band on a membrane.)

SMILES strings stand for the structures. pKd: −log10 of the molar value. Where only a bound is given, the exact number is not on record here.

As to `N=C(N)NCCCCNc1nc(Nc2ccc(Oc3ccccc3)cc2)nc(N2CCN(c3nc(N)nc(Nc4ccc(N5CCOCC5)cc4)n3)CC2)n1` [MC-1-F2], the “combination index with docetaxel (CompuSyn)” value in assay [1] is recorded as “negative combination index”. In assay [1] (24 hours), the “combination effect with docetaxel” value is “synergistic effects” and the “combination effect with enzalutamide (CompuSyn)” value is recorded as “only additive effects”. Further, in assay [2], the negative logarithm of the Kd (pKd) was < 4.00. Moreover, the negative logarithm of the Kd (pKd) in assay [3] is 4.59. For the same compound, in assay [4], the AR expression entry is recorded as “no effect on AR expression”; the “CSC markers Nanog, C-myc and KLF4” value is listed as “significant decreases”; the E-cadherin expression levels entry was “recovery of E-cadherin”; the “EMT markers ZEB1, Vimentin, N-cadherin and Slug” value was “inhibit various EMT markers”. In addition, in assay [4], the “epithelial marker ZO-1 expression” value is given as “recovery of the epithelial marker ZO-1”.

The values are drawn from patent US10814010B2, “FOXC2 inhibitor and methods of use thereof” (The Board of Regents of The University of Texas System, priority 2018, dated 2020).
